We go through 1 molecule from ChEMBL document CHEMBL3886764, “Acetamide derivatives” (2016).

The target of this test is Transient receptor potential cation channel subfamily A member 1 (Homo sapiens, UniProt O75762). In words: Dose Response Assay: Compound plates were resuspended with 100 ul of HBSS/20 mM HEPES/0.005% BSA buffer (Compound Buffer): column 1A-H: buffer/DMSO (bk); column 2A-H: AP-18 (control antagonist for CHOK1 TRPA1 cells); column 1I-P: ATP (control for CHOK1 teton cells); column 2 I-P: 2APB (control antagonist for CHOK1/TRPM8 cells). Growth media was removed from the cell plates (20 ul) and 20 ul of the Replacement Buffer was added followed by addition of 25 ul of diluted dye. All three steps were performed using a Plate Washer BioTek 407. The plates were then incubated for 30' at RT. After incubation, both the cell and compound plates were brought to the FLIPR and 20 ul of the diluted compounds/antagonist/bk were transferred to the cell plates by the FLIPR. Plates were then incubated for 30' at room temperature. After 30' incubation, plates were returned to the FLIPR and 20 ul of 4.5× Cinnamaldehyde was added to the cell plates. During the compound addition as well as agonist addition, fluorescence readings were taken simultaneously from all 384 wells of the cell plate every 1.5 seconds. Five readings were taken to establish a stable baseline, then 20 ul of sample was rapidly (30 ul/sec) and simultaneously added to each well of the cell plate. […].
Chain of Transient receptor potential cation channel subfamily A member 1 (O75762 whole entry): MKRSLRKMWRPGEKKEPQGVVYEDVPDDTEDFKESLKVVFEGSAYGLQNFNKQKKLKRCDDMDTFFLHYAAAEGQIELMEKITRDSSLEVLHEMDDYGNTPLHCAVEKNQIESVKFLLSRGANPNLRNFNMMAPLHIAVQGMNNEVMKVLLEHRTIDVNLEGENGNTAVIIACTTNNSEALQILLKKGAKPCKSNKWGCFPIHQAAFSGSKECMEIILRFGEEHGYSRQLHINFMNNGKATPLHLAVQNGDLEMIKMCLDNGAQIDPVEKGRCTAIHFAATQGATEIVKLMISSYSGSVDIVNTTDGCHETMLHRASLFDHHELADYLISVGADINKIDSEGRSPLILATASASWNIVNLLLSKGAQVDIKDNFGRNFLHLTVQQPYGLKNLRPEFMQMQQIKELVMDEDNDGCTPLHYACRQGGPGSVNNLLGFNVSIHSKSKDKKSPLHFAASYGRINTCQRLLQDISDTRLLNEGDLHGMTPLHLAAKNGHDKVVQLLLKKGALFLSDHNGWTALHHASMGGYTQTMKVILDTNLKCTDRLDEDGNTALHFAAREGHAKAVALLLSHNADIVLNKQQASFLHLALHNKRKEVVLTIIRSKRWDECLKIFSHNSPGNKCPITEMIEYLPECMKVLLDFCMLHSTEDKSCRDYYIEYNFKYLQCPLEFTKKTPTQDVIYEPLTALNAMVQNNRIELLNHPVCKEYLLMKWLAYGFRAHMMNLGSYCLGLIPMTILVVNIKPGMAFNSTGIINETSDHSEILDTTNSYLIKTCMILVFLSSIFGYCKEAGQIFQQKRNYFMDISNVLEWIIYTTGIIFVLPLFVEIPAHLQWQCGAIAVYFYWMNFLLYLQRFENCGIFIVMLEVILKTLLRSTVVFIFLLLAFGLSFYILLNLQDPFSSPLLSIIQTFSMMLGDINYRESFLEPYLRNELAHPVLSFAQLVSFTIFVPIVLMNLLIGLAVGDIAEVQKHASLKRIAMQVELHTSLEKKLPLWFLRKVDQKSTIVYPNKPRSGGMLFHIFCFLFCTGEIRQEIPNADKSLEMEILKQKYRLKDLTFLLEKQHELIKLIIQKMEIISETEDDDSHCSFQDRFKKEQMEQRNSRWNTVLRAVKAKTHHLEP

As usually defined, the IC50 is the point on the concentration scale where inhibition reaches its midpoint. A low value points to greater potency in that assay. Molecule `CN(CC(=O)NCC1CN(c2ccc(C(F)(F)F)cc2)CCO1)S(=O)(=O)c1ccc(F)cc1` (stereo unspecified) came in with an IC50 of 1520 nM.
